# Results published in patent US7182965B2, “Soluble composition containing sporopollenin and the use thereof” (priority 2002, dated 2007).
# System: skin
# Experiment: Skin compatibility, 48 h occlusive patch test, modified Draize evaluation
# Settings: 1% in water, 48 hours under occlusion, 50 test subjects
# Procedure: In this procedure, the GLP Guidelines and the recommendations of the COLIPA work group (Walker A. P. et al.: Test Guidelines for Assessment of Skin Compatibility of Cosmetic Finished Products in Man, Food and Chemical Toxicology 34, 1996, pages 651 to 660) were observed.
# The model noxious substance sodium lauryl sulfate at a concentration of 1% in water served as the positive control. Water itself served as the negative control.
# The evaluation of the test reaction was carried out after 48 and 72 hours in accordance with the modified Draize test.
structure (smiles),measurement,value
"CCCCCCCCCCCCOS(=O)(=O)[O-].[Na+] [SDS, sodium lauryl sulfate]","positive reaction, number of test subjects",14 test subjects
